# Assays:
# [1] = DRUGMATRIX: ATPase, Na+/K+ enzyme inhibition (substrate: ATP); format: tissue-based, Sus scrofa, Heart; conditions: Not Active = under 50% inhibition at 10 µM
# [2] = biological target: C-C chemokine receptor type 5 (Homo sapiens, UniProt P51681); format: cell membranes, Membrane; conditions: hek293; note: in other assays of this panel Not Active means under 50% inhibition at 10 µM
# [3] = biological target: T1, 5-hydroxytryptamine receptor 1A (Rattus norvegicus, UniProt P19327); format: cell membranes, CHO-K1, Membrane; conditions: for Ki: read-out: Ki; for all read-outs here: in other assays of this panel Not Active means under 50% inhibition at 10 µM
# T1 sequence (P19327 whole entry): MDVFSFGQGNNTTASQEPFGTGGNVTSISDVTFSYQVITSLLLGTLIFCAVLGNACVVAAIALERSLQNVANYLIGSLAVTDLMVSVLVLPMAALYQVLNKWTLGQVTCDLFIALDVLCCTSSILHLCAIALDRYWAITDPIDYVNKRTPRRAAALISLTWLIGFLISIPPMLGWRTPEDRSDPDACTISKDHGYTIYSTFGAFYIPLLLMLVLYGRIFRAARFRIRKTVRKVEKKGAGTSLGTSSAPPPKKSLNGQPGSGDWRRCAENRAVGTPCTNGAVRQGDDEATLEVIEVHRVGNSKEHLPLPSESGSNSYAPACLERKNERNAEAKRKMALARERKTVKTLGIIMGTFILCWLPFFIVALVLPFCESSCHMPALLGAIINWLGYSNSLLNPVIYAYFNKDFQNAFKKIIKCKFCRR
# [4] = biological target: T2, Muscarinic acetylcholine receptor M5 (Homo sapiens, UniProt P08912); format: cell membranes, CHO-K1, Membrane; conditions: for Ki: read-out: Ki; for all read-outs here: in other assays of this panel Not Active means under 50% inhibition at 10 µM
# T2 sequence (P08912 whole entry): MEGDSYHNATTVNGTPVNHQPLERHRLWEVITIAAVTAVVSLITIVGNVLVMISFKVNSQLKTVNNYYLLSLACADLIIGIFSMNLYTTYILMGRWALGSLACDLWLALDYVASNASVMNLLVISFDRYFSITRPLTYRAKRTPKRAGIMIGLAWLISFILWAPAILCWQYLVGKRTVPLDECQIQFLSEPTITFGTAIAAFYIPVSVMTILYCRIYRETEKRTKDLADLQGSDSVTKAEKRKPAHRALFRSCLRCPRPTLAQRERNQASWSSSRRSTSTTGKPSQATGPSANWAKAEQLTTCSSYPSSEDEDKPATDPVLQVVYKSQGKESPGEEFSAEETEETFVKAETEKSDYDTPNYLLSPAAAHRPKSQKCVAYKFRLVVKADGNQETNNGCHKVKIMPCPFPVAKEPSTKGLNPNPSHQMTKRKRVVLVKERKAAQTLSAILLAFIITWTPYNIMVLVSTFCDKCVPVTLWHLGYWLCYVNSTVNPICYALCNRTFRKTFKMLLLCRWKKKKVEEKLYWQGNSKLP
# [5] = biological target: T3, Alpha-1A adrenergic receptor (Rattus norvegicus, UniProt P43140); assay: DRUGMATRIX: Alpha-1A adrenergic receptor radioligand binding (ligand: prazosin); format: cell membranes, Wistar, Submaxillary gland, Membrane; conditions: Not Active = under 50% inhibition at 10 µM; for Ki: read-out: Ki
# T3 sequence (P43140 whole entry): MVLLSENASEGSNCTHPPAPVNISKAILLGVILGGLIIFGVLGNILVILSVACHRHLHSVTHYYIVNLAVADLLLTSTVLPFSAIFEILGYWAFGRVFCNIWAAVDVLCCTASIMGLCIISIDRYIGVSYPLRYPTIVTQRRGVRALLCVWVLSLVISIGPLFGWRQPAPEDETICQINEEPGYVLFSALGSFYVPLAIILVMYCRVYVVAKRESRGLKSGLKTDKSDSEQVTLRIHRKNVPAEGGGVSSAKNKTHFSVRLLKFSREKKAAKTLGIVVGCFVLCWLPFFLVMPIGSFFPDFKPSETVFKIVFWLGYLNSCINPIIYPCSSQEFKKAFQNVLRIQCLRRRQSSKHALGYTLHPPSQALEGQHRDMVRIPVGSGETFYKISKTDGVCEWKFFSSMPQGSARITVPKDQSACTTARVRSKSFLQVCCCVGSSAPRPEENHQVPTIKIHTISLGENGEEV
# [6] = biological target: Beta-3 adrenergic receptor (Homo sapiens, UniProt P13945); assay: DRUGMATRIX: Adrenergic beta3 radioligand binding (ligand: [125I] Cyanopindolol); format: cell membranes, HEK293, Membrane; conditions: Not Active = under 50% inhibition at 10 µM
# Chain of Beta-3 adrenergic receptor (P13945 whole entry): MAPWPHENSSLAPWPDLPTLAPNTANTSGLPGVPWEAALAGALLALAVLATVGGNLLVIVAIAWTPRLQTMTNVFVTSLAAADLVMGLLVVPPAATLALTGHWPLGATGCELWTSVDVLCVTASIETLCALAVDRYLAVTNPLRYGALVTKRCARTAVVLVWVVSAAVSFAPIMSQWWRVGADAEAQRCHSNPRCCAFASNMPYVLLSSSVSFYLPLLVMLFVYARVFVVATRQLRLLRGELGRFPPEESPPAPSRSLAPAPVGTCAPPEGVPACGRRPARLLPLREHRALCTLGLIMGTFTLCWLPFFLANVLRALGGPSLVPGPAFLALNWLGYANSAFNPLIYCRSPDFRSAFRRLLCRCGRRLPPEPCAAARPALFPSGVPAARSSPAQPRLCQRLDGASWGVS
# Chain of C-C chemokine receptor type 5 (P51681 whole entry): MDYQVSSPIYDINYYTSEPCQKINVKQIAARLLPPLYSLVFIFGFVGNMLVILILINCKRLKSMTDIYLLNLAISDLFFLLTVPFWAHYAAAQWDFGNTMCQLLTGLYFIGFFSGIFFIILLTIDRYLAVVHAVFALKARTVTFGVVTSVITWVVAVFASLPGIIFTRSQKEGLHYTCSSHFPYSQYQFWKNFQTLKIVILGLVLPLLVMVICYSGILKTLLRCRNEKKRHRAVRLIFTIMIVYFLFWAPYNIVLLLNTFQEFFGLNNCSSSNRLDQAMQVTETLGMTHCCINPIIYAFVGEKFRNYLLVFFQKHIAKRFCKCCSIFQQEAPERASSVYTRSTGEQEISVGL
Structure (SMILES),IC50 [1],Ki [1],IC50 [2],IC50 ([3]; read-out: IC50) [nM],Ki [3] [nM],IC50 ([4]; cho-k1),IC50 [5],IC50 ([6]; hek293),IC50 ([3]; cho-k1),IC50 ([4]; read-out: IC50) [nM],Ki [4] [nM],IC50 ([5]; read-out: IC50) [nM],Ki [5] [nM],IC50 ([6]; read-out: IC50) [nM],Ki ([6]; read-out: Ki) [nM]
CC(C)(C)NC(=O)[C@@H]1C[C@@H]2CCCC[C@@H]2CN1C[C@@H](O)[C@H](Cc1ccccc1)NC(=O)[C@H](CC(N)=O)NC(=O)c1ccc2ccccc2n1,Not Active,Not Active,Not Active,4270,2440,Not Active,Not Active,Not Active,,,,,,,
CC(=O)[C@@]1(O)CC[C@H]2[C@@H]3C[C@H](C)C4=CC(=O)CC[C@]4(C)[C@H]3CC[C@@]21C,Not Active,Not Active,Not Active,,,Not Active,Not Active,Not Active,Not Active,,,,,,
N[C@@H](Cc1ccc(N(CCCl)CCCl)cc1)C(=O)O,Not Active,Not Active,Not Active,,,Not Active,Not Active,Not Active,Not Active,,,,,,
CCCCc1oc2ccccc2c1C(=O)c1cc(I)c(OCCN(CC)CC)c(I)c1 [AMIODARONE],,,Not Active,,,,Not Active,,Not Active,1500,1080,,,,
OCCN(CCO)c1nc(N2CCCCC2)c2nc(N(CCO)CCO)nc(N3CCCCC3)c2n1 [DIPYRIDAMOLE],Not Active,Not Active,Not Active,,,Not Active,Not Active,Not Active,Not Active,,,,,,
Cc1oncc1C(=O)Nc1ccc(C(F)(F)F)cc1 [LEFLUNOMIDE],Not Active,Not Active,Not Active,,,Not Active,Not Active,Not Active,Not Active,,,,,,
c1ccc([C@H]2CN3CCSC3=N2)cc1 [LEVAMISOLE],Not Active,Not Active,Not Active,,,Not Active,Not Active,Not Active,Not Active,,,,,,
N[C@@H](Cc1ccc(O)c(O)c1)C(=O)O [LEVODOPA],Not Active,Not Active,Not Active,,,Not Active,Not Active,Not Active,Not Active,,,,,,
N[C@@H](Cc1cc(I)c(Oc2ccc(O)c(I)c2)c(I)c1)C(=O)O [LIOTHYRONINE],,,Not Active,,,Not Active,Not Active,Not Active,Not Active,,,,,,
O=NN(CCCl)C(=O)NC1CCCCC1 [LOMUSTINE],Not Active,Not Active,Not Active,,,Not Active,Not Active,Not Active,Not Active,,,,,,
CCOC(=O)N1CCC(=C2c3ccc(Cl)cc3CCc3cccnc32)CC1 [LORATADINE],Not Active,Not Active,Not Active,,,Not Active,Not Active,Not Active,Not Active,,,,,,
Cn1ccnc1S [METHIMAZOLE],Not Active,Not Active,Not Active,,,Not Active,Not Active,Not Active,Not Active,,,,,,
CC[C@@H](CO)NC(=O)[C@@H]1C=C2c3cccc4[nH]cc(c34)C[C@H]2N(C)C1 [METHYLERGONOVINE],Not Active,Not Active,Not Active,4.07,2.33,Not Active,Not Active,Not Active,,,,,,,
COc1nc(C)nc(Cl)c1NC1=NCCN1 [MOXONIDINE],Not Active,Not Active,Not Active,702,401,Not Active,Not Active,Not Active,,,,,,,
COc1c(C)c2c(c(O)c1C/C=C(\C)CCC(=O)O)C(=O)OC2 [MYCOPHENOLIC ACID],Not Active,Not Active,Not Active,,,Not Active,Not Active,Not Active,Not Active,,,,,,
O=c1ncn2nc(Sc3ccc(F)cc3F)ccc2c1-c1c(Cl)cccc1Cl [NEFLAMAPIMOD],Not Active,Not Active,Not Active,,,Not Active,Not Active,Not Active,Not Active,,,,,,
CN1CCN(CCCN2c3ccccc3Sc3ccc(Cl)cc32)CC1 [PROCHLORPERAZINE],,,Not Active,950,543,,,Not Active,,220,158,32,13,,
CO[C@H]1/C=C/O[C@@]2(C)Oc3c(C)c(O)c4c(O)c(c(/C=N/N5CCN(C)CC5)c(O)c4c3C2=O)NC(=O)/C(C)=C\C=C\[C@H](C)[C@H](O)[C@@H](C)[C@@H](O)[C@@H](C)[C@H](OC(C)=O)[C@@H]1C [RIFAMPIN],Not Active,Not Active,Not Active,,,Not Active,Not Active,Not Active,Not Active,,,,,,
Nc1nc2ccc(OC(F)(F)F)cc2s1 [RILUZOLE],Not Active,Not Active,Not Active,,,Not Active,Not Active,Not Active,Not Active,,,,,,
Cc1nc2n(c(=O)c1CCN1CCC(c3noc4cc(F)ccc34)CC1)CCCC2 [RISPERIDONE],,,Not Active,,,Not Active,,Not Active,,,,,,,
C=CCC1(C(C)CCC)C(=O)NC(=O)NC1=O (stereo not drawn) [SECOBARBITAL],Not Active,Not Active,Not Active,,,Not Active,Not Active,Not Active,Not Active,,,,,,
C[C@@H]1CN(c2c(F)c(N)c3c(=O)c(C(=O)O)cn(C4CC4)c3c2F)C[C@H](C)N1 [SPARFLOXACIN],Not Active,Not Active,Not Active,,,Not Active,Not Active,Not Active,Not Active,,,,,,
Cc1noc(NS(=O)(=O)c2ccc(N)cc2)c1C [SULFISOXAZOLE],Not Active,Not Active,Not Active,,,Not Active,Not Active,Not Active,Not Active,,,,,,
CSc1ccc(/C=C2/C(C)=C(CC(=O)O)c3cc(F)ccc32)cc1 [SULINDAC SULFIDE],Not Active,Not Active,Not Active,,,Not Active,Not Active,Not Active,Not Active,,,,,,
Nc1c2c(nc3ccccc13)CCCC2 [TACRINE],Not Active,Not Active,Not Active,,,Not Active,,Not Active,Not Active,,,2750,1110,,
CC/C(=C(\c1ccccc1)c1ccc(OCCN(C)C)cc1)c1ccccc1 [TAMOXIFEN],,,Not Active,12200,6950,,,,,2580,1860,22100,8920,7700,5780
CC(C)N1CCN(c2ccc(OCC3COC(Cn4cncn4)(c4ccc(Cl)cc4Cl)O3)cc2)CC1 (stereo not drawn) [TERCONAZOLE],Not Active,Not Active,Not Active,,,,,,Not Active,4360,3130,13300,5370,,
Nc1nc2nc[nH]c2c(=S)[nH]1 [THIOGUANINE],Not Active,Not Active,Not Active,,,Not Active,Not Active,Not Active,Not Active,,,,,,
Cc1cccc(N(C)C(=S)Oc2ccc3ccccc3c2)c1 [TOLNAFTATE],Not Active,Not Active,Not Active,,,Not Active,Not Active,Not Active,Not Active,,,,,,

# From ChEMBL document CHEMBL1909046, “DrugMatrix in vitro pharmacology data”
